# Patent US12180187B2, “1-phenyl-5-azinylpyrazolyl-3-oxyalkyl acids and their use for controlling unwanted plant growth” (BAYER AKTIENGESELLSCHAFT, priority 2019, dated 2024)
# Experiments:
# AMARE [1] = experiment: Pre-emergence action against AMARE, 1280 g/ha; format: in vivo, Amaranthus retroflexus; settings: scored visually after about 3 weeks vs untreated controls (100% = plants have died)
# Method in brief: (§1)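 Each pot was doubly sown in sandy loam and covered, then its soil surface was treated with compound suspension or emulsion containing 0.5% additive at 600 L/ha water. Plants grew in a greenhouse; effect was rated visually as percentages versus controls after about 3 weeks.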
# POAAN [2] = experiment: Pre-emergence action against POAAN, 1280 g/ha; format: in vivo, Poa annua; settings: visual scoring after about 3 weeks vs untreated controls, 100% = plants have died, 0% = like control plants
# Method in brief: as §1
# MATIN [3] = experiment: Pre-emergence action at 320 g/ha against MATIN; format: in vivo, Tripleurospermum inodorum (Matricaria inodora); settings: visual scoring after about 3 weeks vs untreated controls
# Source text: (§2) b) Seeds of monocotyledonous and dicotyledonous weed plants and crop plants are placed in plastic or organic planting pots and covered with soil. The compounds of the invention, formulated in the form of wettable powders (WP) or as emulsion concentrates (EC), are then applied onto the surface of the covering soil as aqueous suspension or emulsion with addition of 0.5% additive at a water application rate of 600 l/ha (converted). After the treatment, the pots are placed in a greenhouse and kept under good growth conditions for the trial plants. After about 3 weeks, the effect of the preparations is scored visually in comparison with untreated controls as percentages. For example, 100% activity=the plants have died, 0% activity=like control plants. Tables 13 to 26 below show the effects of selected compounds of the general formula (I) on various harmful plants and at an application rate corresponding to 320 g/ha, which were obtained by the experimental procedure mentioned above.
# VERPE [4] = experiment: Pre-emergence action against VERPE, 1280 g/ha; format: in vivo, Veronica persica; settings: scored visually after about 3 weeks vs untreated controls (100% = plants have died)
# Method in brief: as §1
# SETVI [5] = experiment: Pre-emergence action against SETVI, 1280 g/ha; format: in vivo, Setaria viridis; settings: visual scoring after about 3 weeks vs untreated controls, 100% = plants have died, 0% = like control plants
# Method in brief: as §1
# POAAN [6] = experiment: Post-emergence action against POAAN, 1.28 kg/ha; format: in vivo, Poa annua; settings: dosage 1280 g/ha, visual rating about 3 weeks after treatment vs untreated controls
# Method in brief: (§3)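 Foliar application at the one-leaf stage: compound as WP or EC in water with 0.5% additive, sprayed at 600 L/ha. Plants are kept about 3 weeks in the greenhouse, then % herbicidal action is estimated visually (100% = death).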
# AMARE [7] = experiment: Post-emergence action against AMARE, 1.28 kg/ha; format: in vivo, Amaranthus retroflexus; settings: dosage 1280 g/ha, visual rating about 3 weeks after treatment vs untreated controls (100% = plants died)
# Method in brief: as §3
# DIGSA [8] = experiment: Pre-emergence action against DIGSA, 1280 g/ha; format: in vivo, Digitaria sanguinalis; settings: visual scoring after about 3 weeks vs untreated controls, 100% = plants have died, 0% = like control plants
# Method in brief: as §1
# AMARE [9] = experiment: Pre-emergence action at 320 g/ha against AMARE; format: in vivo, Amaranthus retroflexus; settings: visual scoring after about 3 weeks vs untreated controls
# Method in brief: (§4)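 Greenhouse pot trial in which formulated compound (wettable powder or emulsion concentrate) goes onto the soil surface right after sowing, at a spray volume of 600 l/ha including 0.5% additive. Effects are judged visually after about 3 weeks (0% = like control, 100% = dead).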
# ECHGC = experiment: Pre-emergence action at 320 g/ha against ECHGC; format: in vivo, Echinochloa crus-galli; settings: visual scoring after about 3 weeks vs untreated controls
# Source text: as §2
# ECHCG [10] = experiment: Pre-emergence action against ECHCG, 1280 g/ha; format: in vivo, Echinochloa crus-galli; settings: visual scoring after about 3 weeks vs untreated controls, 100% = plants have died, 0% = like control plants
# Method in brief: as §1
# DIGSA [11] = experiment: Post-emergence action against DIGSA, 1.28 kg/ha; format: in vivo, Digitaria sanguinalis; settings: dosage 1280 g/ha, visual rating about 3 weeks after treatment vs untreated controls
# Method in brief: as §3
# ALOMY [12] = experiment: Pre-emergence action against ALOMY, 1280 g/ha; format: in vivo, Alopecurus myosuroides; settings: visual scoring after about 3 weeks vs untreated controls, 100% = plants have died, 0% = like control plants
# Method in brief: as §1
# VIOTR = experiment: Pre-emergence action at 320 g/ha against VIOTR; format: in vivo, Viola tricolor; settings: dosage 320 g/ha
# Method in brief: as §4
# ALOMY [13] = experiment: Pre-emergence action at 320 g/ha against ALOMY; format: in vivo, Alopecurus myosuroides; settings: scored visually after about 3 weeks vs untreated controls (100% = plants have died)
# Method in brief: as §4
# MATIN [14] = experiment: Pre-emergence action against MATIN, 1280 g/ha; format: in vivo, Tripleurospermum inodorum (Matricaria inodora); settings: scored visually after about 3 weeks vs untreated controls (100% = plants have died)
# Method in brief: as §1
# MATIN [15] = experiment: Post-emergence action against MATIN, 1.28 kg/ha; format: in vivo, Tripleurospermum inodorum (Matricaria inodora); settings: dosage 1280 g/ha, visual rating about 3 weeks after treatment vs untreated controls (100% = plants died)
# Method in brief: as §3
# VERPE [16] = experiment: Post-emergence action against VERPE, 1.28 kg/ha; format: in vivo, Veronica persica; settings: dosage 1280 g/ha, visual rating about 3 weeks after treatment vs untreated controls (100% = plants died)
# Method in brief: as §3
# SETVI [17] = experiment: Pre-emergence action at 320 g/ha against SETVI; format: in vivo, Setaria viridis; settings: visual scoring after about 3 weeks vs untreated controls
# Source text: as §2
# LOLRI [18] = experiment: Pre-emergence action against LOLRI, 1280 g/ha; format: in vivo, Lolium rigidum; settings: visual scoring after about 3 weeks vs untreated controls, 100% = plants have died, 0% = like control plants
# Method in brief: as §1
# DIGSA [19] = experiment: Pre-emergence action at 320 g/ha against DIGSA; format: in vivo, Digitaria sanguinalis; settings: visual scoring after about 3 weeks vs untreated controls
# Source text: as §2
# LOLRI [20] = experiment: Pre-emergence action at 320 g/ha against LOLRI; format: in vivo, Lolium rigidum; settings: visual scoring after about 3 weeks vs untreated controls
# Source text: as §2
# ECHCG [21] = experiment: Post-emergence action against ECHCG, 1.28 kg/ha; format: in vivo, Echinochloa crus-galli; settings: dosage 1280 g/ha, visual rating about 3 weeks after treatment vs untreated controls
# Method in brief: as §3
# ALOMY [22] = experiment: Post-emergence action against ALOMY, 1.28 kg/ha; format: in vivo, Alopecurus myosuroides; settings: dosage 1280 g/ha, visual rating about 3 weeks after treatment vs untreated controls
# Method in brief: as §3
# STEME = experiment: Pre-emergence action against STEME, 1280 g/ha; format: in vivo, Stellaria media; settings: scored visually after about 3 weeks vs untreated controls (100% = plants have died)
# Method in brief: as §1
# SETVI [23] = experiment: Post-emergence action against SETVI, 1.28 kg/ha; format: in vivo, Setaria viridis; settings: dosage 1280 g/ha, visual rating about 3 weeks after treatment vs untreated controls
# Method: • a) Seeds of mono- and dicotyledonous weed plants are placed in plastic pots in sandy loam soil (twin sowing with one species each of mono- or dicotyledonous weed plants per pot), covered with soil and cultivated in a greenhouse under controlled growth conditions. 2 to 3 weeks after sowing, the test plants are treated at the one-leaf stage. The compounds of the invention, formulated in the form of wettable powders (WP) or as emulsion concentrates (EC), are applied to the green parts of the plants as aqueous suspension or emulsion with addition of 0.5% additive at a water application rate equivalent to 600 litres per hectare. After the test plants have been kept in the greenhouse under optimum growth conditions for about 3 weeks, the activity of the preparations is rated visually in comparison to untreated controls. For example, 100% activity=the plants have died, 0% activity=like control plants. As shown by the results, compounds of the general formula (I) of the invention, in post-emergence treatment, have very good herbicidal efficacy (90% to 100% herbicidal action) against harmful plants such as Abutilon theophrasti, Digitaria sanguinalis, Echinochloa crus-galli, Matricaria inodora, Poa annua, at an application rate of 1.28 kg of active substance per hectare.
# ABUTH = experiment: Post-emergence action against ABUTH, 1.28 kg/ha; format: in vivo, Abutilon theophrasti; settings: dosage 1280 g/ha, visual rating about 3 weeks after treatment vs untreated controls (100% = plants died)
# Method in brief: as §3
# POLCO = experiment: Pre-emergence action at 320 g/ha against POLCO; format: in vivo, Fallopia convolvulus (Polygonum convolvulus); settings: visual scoring after about 3 weeks vs untreated controls
# Method in brief: as §4
# VERPE [24] = experiment: Pre-emergence action at 320 g/ha against VERPE; format: in vivo, Veronica persica; settings: visual scoring after about 3 weeks vs untreated controls
# Source text: as §2
# AVEFA = experiment: Pre-emergence action at 320 g/ha against AVEFA; format: in vivo; settings: visual scoring after about 3 weeks vs untreated controls
# Source text: as §2
SMILES,Pre-emergence action against MATIN in % (MATIN [3]) [%],Pre-emergence action against AMARE in % (AMARE [9]) [%],Pre-emergence action against ECHGC in % (ECHGC) [%],Pre-emergence action against VIOTR in % (VIOTR) [%],Pre-emergence action at 320 g/ha against ALOMY in % (ALOMY [13]) [%],Pre-emergence action against SETVI in % (SETVI [17]) [%],Pre-emergence action against LOLRI in % (LOLRI [20]) [%],Pre-emergence action against POLCO in % (POLCO) [%],Pre-emergence action against VERPE in % (VERPE [24]) [%],Pre-emergence action against AVEFA in % (AVEFA) [%],further results
O=C(COc1nn(-c2ccccc2F)c(-c2ccnc(F)c2)c1Br)OCC1CCOC1 (stereo not shown) [VIII-011],90,100,90,100,100,90,90,–,–,–,Pre-emergence action against AMARE (AMARE [1]): 100%; Pre-emergence action against POAAN (POAAN [2]): 100%; Pre-emergence action against VERPE (VERPE [4]): 100%; Pre-emergence action against SETVI (SETVI [5]): 100%; Post-emergence action against POAAN (POAAN [6]): 100%; Post-emergence action against AMARE (AMARE [7]): 100%; Pre-emergence action against DIGSA (DIGSA [8]): 90%; Pre-emergence action against ECHCG (ECHCG [10]): 100%; Post-emergence action against DIGSA (DIGSA [11]): 100%; Pre-emergence action against ALOMY (ALOMY [12]): 90%; Pre-emergence action against MATIN (MATIN [14]): 100%; Post-emergence action against MATIN (MATIN [15]): 90%; Post-emergence action against VERPE (VERPE [16]): 100%; Pre-emergence action against LOLRI (LOLRI [18]): 100%; Pre-emergence action against DIGSA in % (DIGSA [19]): 100%; Post-emergence action against ECHCG (ECHCG [21]): 100%; Post-emergence action against ALOMY (ALOMY [22]): 100%; Pre-emergence action against STEME (STEME): 100%; Post-emergence action against SETVI (SETVI [23]): 100%; Post-emergence action against ABUTH (ABUTH): 90%
COC(=O)C1CCCN1C(=O)COc1nn(-c2ccccc2F)c(-c2ccc(F)nc2)c1Br (stereo not shown) [Example X-016],90,100,90,100,100,100,90,80,100,90,–
COC(=O)COc1nn(-c2ccccc2F)c(-c2ccc(F)nc2)c1I [VII-113],90,100,90,100,90,90,100,90,90,90,–
COC(=O)[C@@H](C)Oc1nn(-c2ccccc2)c(-c2cccnc2)c1Cl [VII-041],100,100,80,80,90,–,90,–,100,80,–
